# In publication PMC8000185 (International Journal of Molecular Sciences, 2021):
# Several values for one entry are separate records, joined by “and”; a condition that tells them apart may be missing. Identical values can stand only once. Like-named read-outs stand apart in the source and are kept apart here.
# Experiments:
# NHE1 [1] = target: T1, NHE1 (Homo sapiens, UniProt P19634); experiment: Plate-based NHE1 inhibition assay (BCECF pHi recovery, 96-well plate reader); type: cell-based
# T1 construct: endogenous in cells; host or cells: MDA-MB-231
# T1 sequence (P19634 whole entry): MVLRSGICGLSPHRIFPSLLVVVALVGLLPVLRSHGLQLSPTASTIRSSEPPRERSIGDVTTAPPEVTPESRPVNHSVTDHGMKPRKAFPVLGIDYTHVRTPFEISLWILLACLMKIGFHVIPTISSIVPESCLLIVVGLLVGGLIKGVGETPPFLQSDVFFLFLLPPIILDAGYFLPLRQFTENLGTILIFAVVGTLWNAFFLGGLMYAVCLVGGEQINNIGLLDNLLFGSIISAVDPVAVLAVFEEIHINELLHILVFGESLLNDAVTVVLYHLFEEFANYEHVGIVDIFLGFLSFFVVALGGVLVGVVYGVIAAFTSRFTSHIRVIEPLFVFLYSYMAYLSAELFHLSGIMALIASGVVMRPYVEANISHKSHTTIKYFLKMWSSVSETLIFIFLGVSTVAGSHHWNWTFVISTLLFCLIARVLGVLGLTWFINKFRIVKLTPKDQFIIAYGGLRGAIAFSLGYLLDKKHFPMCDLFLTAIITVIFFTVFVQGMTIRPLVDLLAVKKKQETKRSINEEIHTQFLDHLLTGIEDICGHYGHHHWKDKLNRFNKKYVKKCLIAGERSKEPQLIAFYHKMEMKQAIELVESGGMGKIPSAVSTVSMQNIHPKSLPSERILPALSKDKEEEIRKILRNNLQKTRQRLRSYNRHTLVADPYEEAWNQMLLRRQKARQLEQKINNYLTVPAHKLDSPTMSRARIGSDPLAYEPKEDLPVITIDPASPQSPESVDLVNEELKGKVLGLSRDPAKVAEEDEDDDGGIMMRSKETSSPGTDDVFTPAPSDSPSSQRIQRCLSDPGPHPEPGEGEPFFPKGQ
# Procedure: To perform NHE1 screening with increased throughput, we adapted the conventional cuvette-based NHE1 activity assay to a simple new 96-well plate format using MDA-MB-231 cells that were compatible with common laboratory fluorescence plate readers (see Section 4 for details).
# Culture media were removed and replaced with 200 µL 0.2% FBS-containing media with incubation for 3–4 h to stimulate NHE1 activity, followed by incubation for 30 min in the presence of 5 µM 2′,7′-bis(carboxyethyl)-5(6)-carboxyfluorescein-acetoxymethyl ester (BCECF-AM, cat #ab143463, Abcam, Cambridge, United Kingdom). Cells were then washed with 100 µL/well Na^+-free acid-load buffer: 10 mM NH4Cl, 1.8 mM CaCl2, 90 mM N-methyl-D-glucamine (from 1 M stock titrated to pH 7.4 with HCl), 5 mM glucose, 15 mM HEPES, 5 mM KCl, 1 mM MgCl2 (pH 7.5, adjusted with KOH), and incubated at 37 °C for a further 30 min. Acid-load buffer was removed and replaced with Na^+-containing assay buffer: 100 mM NaCl, 1.8 mM CaCl2, 5 mM glucose, 15 mM HEPES, 5 mM KCl, 1 mM MgCl2 containing serial dilution of each compound or DMSO vehicle, and changes in fluorescence were read immediately using a BMG Labtech POLARstar OMEGA (BMG Labtech GmbH, Offenburg, Germany) plate reader according to the parameters in Table S1. Compounds were tested at n = 3 technical replicates per concentration per plate. BCECF-AM-free cells were treated with matched concentrations of each compound to correct for intrinsic fluorescence. DMSO was present in all wells at a final concentration of 1% v/v. Inhibition of NHE1-mediated pHi recovery was determined by ratiometric calculation of the change in blank-corrected pH-sensitive fluorescence divided by the isobestic fluorescence for each well over time. […] (0% activity) controls present on each plate. IC50 values were determined through fitting of Log-10 transformed data using the “log(inhibitor) versus normalised response–variable slope” non-linear function in GraphPad PRISM v8.0 software package (GraphPad Software, San Diego, CA, USA).
# [2] = Cell viability (cytotoxicity) assay; type: cell-based; settings: human, MDA-MB-231 cells, 48 h treatment
# Procedure: On the day of treatment, respective compounds were serially diluted using a semi-logarithmic dilution series from 20 mM stocks in neat DMSO into DMEM-high glucose media (10% v/v FBS) in a separate 96-well plate and under sterile conditions. Thereafter, 10 μL of the diluted compounds at their respective concentrations (n = 4) were added to the cells. […] Vehicle media blanks or drug blanks were also included to correct for inherent colour of the compounds and phenol red-containing media. Following 48 h treatment, 20 μL CellTitre 96® Aqueous One Solution Cell Proliferation Assay (Promega, Madison, USA) was added to each well, plates were incubated for 2 h, and absorbance was measured at 490 nm using a SpectraMax Plus 384-well plate reader (Molecular Devices LLC, San Jose, USA) and Softmax PRO v7.0 software. Blank-corrected data were analysed and graphed using GraphPad PRISM v8.0 software (GraphPad Software, San Diego, CA USA).
# NHE1 [3] = settings: read-out: NHE1 IC50 (literature); cited from earlier work
# [4] = target: T2, urokinase from human kidney cells (human uPA) (Homo sapiens, UniProt P00749); experiment: uPA inhibition assay (fluorescence-based, purified enzyme); type: biochemical; settings: for uPA selectivity ratio: uPA over NHE1
# T2 construct: low molecular weight active human uPA; purchased Sigma-Aldrich U4010; host or cells: human kidney cells
# NHE1 [5] = target: T1, NHE1; experiment: Cuvette-based NHE1 inhibition assay; type: cell-based
# Procedure: Performed as described in [53]. Briefly, MDA-MB-231 cells were grown to ~80–90% confluence on glass coverslips. Then, 3 µM BCECF were loaded into cells in 400 µL serum-free medium and the fluorescence was measured using a PTI Deltascan spectrofluorometer (Horiba Ltd., Kyoto, Japan). […] A calibration curve of pHi fluorescence was performed for every sample using nigericin [55]. […] IC50 values were determined through fitting of Log-10 transformed data using the “log(inhibitor) versus normalised response–variable slope” non-linear function in GraphPad PRISM v8.0 software package (GraphPad Software, San Diego, USA).
# [6] = target: T3, MDA-MB-231 cell-surface uPA (HMW human active uPA bound to uPAR) (Homo sapiens, UniProt P00749); experiment: Cell-surface uPA activity assay; type: cell-based; settings: average ± SEM from four independent assays
# T3 construct: pre-incubated with active high molecular weight (HMW) uPA; purchased Molecular Innovations HTC-UPA; host or cells: added to MDA-MB-231 cells (endogenous uPAR)
# Procedure: Having identified non-cytotoxic compounds with the desired target selectivity profiles, we then sought to confirm their uPA inhibitory activities in a more physiologically relevant, whole-cell assay. To this end, the fluorogenic biochemical assay was modified to allow measurement of cell-surface uPA activity in MDA-MB-231 cells, which are known to express uPAR [38, 39]. To maximise enzymatic activity, the cells were pre-incubated with active high molecular weight (HMW) uPA to saturate unoccupied uPAR present at the cell surface.
# MDA-MB-231 cells were seeded into Greiner CELLSTAR black 96-well plates (Greiner Bio-one, cat #655079) at density 10,000 cells/well in a volume of 100 µL media and cultured for 48 h. On the day of the experiment, cell culture media were removed via shakeout, followed by washing with 100 µL 1 × Dulbecco’s PBS/1 mM CaCl2/1 mM MgCl2/0.1% protease-free bovine serum albumin/pH 7.4 wash buffer. Cells were then incubated in the presence of 25 nM HMW human active uPA (Molecular Innovations, San Diego, CA, USA, SKU: HTC-UPA) in wash buffer for 30 min at RT. Unbound HMW uPA was removed via washing twice with 100 µL wash buffer. […] Plates were read immediately following the addition of substrate using a POLARstar OMEGA fluorescence plate reader (BMG Labtech GmbH, Offenburg, Germany) according to the parameters in Table S1.
# ENaC = settings: previously showed; cited from earlier work
# [7] = previously showed; cited from earlier work
# [8] = tested on: orthotopic xenograft model of pancreatic ductal adenocaricinoma; settings: pancreatic ductal adenocarcinoma; cited from earlier work
# [9] = 1 μM, MDA-MB-231 cells, plate reader
# [10] = MDA-MB-231 cells, plate-reader assay, read-out: NHE1 Plate reader IC50
# [11] = purified enzyme, Z-Gly-Gly-Arg-AMC substrate, number in parentheses after value, read-out: uPA IC50
# [12] = plate-reader value as printed in nM in text, read-out: NHE1 IC50
# [13] = MDA-MB-231 cells, cuvette assay, read-out: NHE1 Cuvette IC50
Compound,inhibition at 1 µM (NHE1 [1]; [9]),"inhibition at 10 µM (NHE1 [1]; MDA-MB-231 cells, plate reader)",IC50 at 48 h [2],IC50 (NHE1 [3]),"IC50 ([4]; human uPA, fluorometric method, Figure S1, read-out: uPA IC50 (not reached at the highest concentration tested))","IC50 (NHE1 [1]; Figure S1 representative curve, n = 3 technical replicates, read-out: NHE1 IC50 of curve shown, plate reader assay)",IC50 (NHE1 [1]; [10]),"IC50 (NHE1 [5]; Figure S1, n = 6 technical replicates/concentration, read-out: NHE1 IC50, cuvette assay)","IC50 [4, 11]",uPA selectivity ratio [4],IC50 (NHE1 [1]; [12]),IC50 (NHE1 [5]; [13]),IC50 [6],ENaC activity in vitro (ENaC),K+-sparing or diuretic effects in vivo [7],NHE1 Inhibition (%) 1 μM (NHE1 [1]; [9]),drop in NHE1 potency relative to unsubstituted 24 (NHE1 [1]; IC50 measurements),anti-metastatic properties [8],NHE1 selectivity ratio (selectivity over uPA) (NHE1 [1])
"N=C(N)NC(=O)c1nc(Cl)c(N)nc1N [AML, Amiloride, reference compound]",7%,64%,> 100000 nM,[…],–,–,–,–,–,–,–,–,–,–,–,–,–,–,–
"CC(=O)N1CCC(c2ccc(C(=O)NC(=N)N)cc2C(F)(F)F)CC1 [BI-9627, reference compound]",–,–,–,6 nM,> 50000 nM,1.4 nM,3 ± 0.8 nM,7.5 nM,–,–,–,–,–,–,–,–,–,–,–
N=C(N)NC(=O)c1nc(-c2cncnc2)c(N2CCCCCC2)nc1N [compound 24],80%,96%,> 100000 nM,–,–,–,–,–,175 nM and < 300 nM,1.5,266 nM and < 300 nM,397 nM,130 ± 10 nM,no ENaC activity,no K^+-sparing or diuretic effects,–,–,–,–
COc1ncc(-c2nc(C(=O)NC(=N)N)c(N)nc2N2CCCCCC2)cn1 [compound 26],0%,72%,> 100000 nM,–,–,–,–,–,86 nM,143,12300 nM,21500 nM,149 ± 14 nM,no ENaC activity,no K^+-sparing or diuretic effects,no activity,~ 46 fold,anti-metastatic properties,–
N=C(N)NC(=O)c1nc(Cl)c(N2CCOCC2)nc1N [compound 29],85%,100%,> 100000 nM,–,–,–,–,–,10900 nM,–,129 nM,166 nM,–,–,–,–,–,–,85 fold
N=C(N)NC(=O)c1nc(Cl)c(N2CCCOCC2)nc1N [compound 30],91%,100%,95600 nM,–,–,–,–,–,5720 nM,–,85 nM,93 nM,–,–,–,–,–,–,67 fold
N=C(N)NC(=O)c1nc(-c2ccc(C(F)(F)F)cc2)c(N2CCCC2)nc1N [compound 39],95%,100%,23900 nM,–,–,–,605 ± 134 nM,–,6190 nM,–,–,441 nM,–,–,–,–,–,–,–
